Results on 17 compounds are retold here after patent US20260200897A1, “4-((5-(3-(4-(PYRIDIN-2-YL)CYCLOPENTYL)-1H-PYRAZOL-3-YL)AMINO)-BENZENESULFONAMIDE DERIVATIVES AND SIMILAR COMPOUNDS AS CDK INHIBITORS FOR THE TREATMENT OF CANCER” (BeOne Medicines I GmbH, priority 2023, published 2026).

pIC50: −log10 of the molar value.

The target in experiment [1] is CDK1/Cyclin B1 (Homo sapiens, UniProt P06493). Nature of the experiment: CDK1/Cyclin B1 TR-FRET biochemical assay, 0.015 mM ATP. To be noted: 0.15 μM Rb (Ser780)-biotin substrate, 120 min reaction, Table 1. The protocol: (§1) Compounds disclosed herein were tested for inhibition of CDK2/Cyclin E1 or CDK1/Cyclin B1 kinase in an assay based on the time-resolved fluorescence-resonance energy transfer (TR-FRET) methodology. The assay was carried out in 384-well low volume black plates in a reaction mixture containing CDK2/Cyclin E1 or CDK1/Cyclin B1, 0.060 mM ATP for CDK2/Cyclin E1 or 0.015 mM ATP for CDK1/Cyclin B1, 0.15 μM Rb (Ser780)-biotin substrate and 0-10 μM compound in buffer containing 50 mM HEPES pH7.0, 0.02% NaN3, 0.01% BSA, 0.1 mM Orthovanadate, 50 mM MgCl2, 1 mM DTT and 0.005% Tween-20. The kinase was incubated with compound for 60 minutes at room temperature and the reaction was initiated by the addition of ATP and Rb (Ser780)-biotin substrate. After reaction at room temperature for 120 minutes, an equal volume of stop/detection solution was added according to the manufacture's instruction (Cisbio Bioassays). The stop/detection solution contained Streptavidin-XL665 and Anti-pRb (Ser780) mAb-Eu Cryptate in Detection buffer (Cisbio Bioassays). Plates were incubated at room temperature for 60 minutes, and the TR-FRET signals (ex337 nm, em665 nm/620 nm) were recorded on a PHERAstar FSX plate reader (BMG Labtech). The inhibition percentage of CDK2/Cyclin E1 or CDK1/Cyclin B1 kinase activity in presence of increasing concentrations of compounds was calculated based on the ratio of fluorescence at 665 nm to that at 620 nm. The IC50 for each compound was derived from fitting the data to the four-parameter logistic equation by Dotmatics.
Background: TR-FRET usually uses a lanthanide donor and a delayed reading to cut background.

The target of experiment [2] is CDK2/Cyclin E1 (Homo sapiens, UniProt P24941). Kind of experiment: CDK2/Cyclin E1 TR-FRET biochemical assay, 0.060 mM ATP. Particulars: 0.15 μM Rb (Ser780)-biotin substrate, 120 min reaction, Table 1. The protocol: as §1

CDK1/Cyclin B1, sequence (P06493 whole entry): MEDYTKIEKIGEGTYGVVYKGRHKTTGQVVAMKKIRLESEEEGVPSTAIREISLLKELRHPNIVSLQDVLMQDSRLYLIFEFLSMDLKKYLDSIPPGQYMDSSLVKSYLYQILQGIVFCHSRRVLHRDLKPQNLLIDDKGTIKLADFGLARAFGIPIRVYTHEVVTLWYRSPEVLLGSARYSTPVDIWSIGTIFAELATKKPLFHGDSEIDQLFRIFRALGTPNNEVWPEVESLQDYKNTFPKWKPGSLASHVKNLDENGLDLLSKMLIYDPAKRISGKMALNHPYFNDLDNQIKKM
CDK1/Cyclin B1, sequence (P14635 whole entry partner): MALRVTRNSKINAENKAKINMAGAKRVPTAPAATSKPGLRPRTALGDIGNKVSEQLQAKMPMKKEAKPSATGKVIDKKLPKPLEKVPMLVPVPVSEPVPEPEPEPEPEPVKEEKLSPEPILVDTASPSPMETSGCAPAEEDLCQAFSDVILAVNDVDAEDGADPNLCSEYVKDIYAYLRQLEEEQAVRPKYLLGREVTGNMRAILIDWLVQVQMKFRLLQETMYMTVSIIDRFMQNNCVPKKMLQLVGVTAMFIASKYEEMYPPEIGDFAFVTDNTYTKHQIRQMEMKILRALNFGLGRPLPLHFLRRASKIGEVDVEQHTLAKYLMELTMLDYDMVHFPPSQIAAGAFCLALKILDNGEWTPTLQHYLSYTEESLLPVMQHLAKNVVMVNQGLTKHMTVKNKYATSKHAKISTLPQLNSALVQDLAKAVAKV

The term pIC50 denotes the negative decadic logarithm of the IC50, by convention in mol/L. Lower therefore signals a high IC50. In the case of `O=S1(=O)NCc2c1ccc(Nc1cc([C@H]3CC[C@@H](Oc4ccsn4)C3)[nH]n1)c2F` (relative stereo) [Example 50, cis-4-fluoro-5-((5-(3-(isothiazol-3-yloxy)cyclopentyl)-1H-pyrazol-3-yl)amino)-2,3-dihydrobenzo[d]isothiazole 1,1-dioxide], the negative-log IC50 (pIC50) is 5.88 in experiment [1] and 7.48 in experiment [2].

As for `O=c1ccsn1[C@H]1CC[C@@H](c2cc(Nc3ccc4c(c3F)CNS4(=O)=O)n[nH]2)C1` (relative stereo) [Example 51, cis-2-(3-(3-((4-fluoro-1,1-dioxido-2,3-dihydrobenzo[d]isothiazol-5-yl)amino)-1H-pyrazol-5-yl)cyclopentyl)isothiazol-3 (2H)-one], the pIC50 in experiment [1] was 5.75; in experiment [2] it was 6.67.

As for `C=C(C)c1csnc1O[C@@H]1CC[C@H](c2cc(Nc3ccc4c(c3F)CNS4(=O)=O)n[nH]2)C1` (relative stereo) [Example 52, cis-4-fluoro-5-((5-(3-((4-(prop-1-en-2-yl)isothiazol-3-yl)oxy)cyclopentyl)-1H-pyrazol-3-yl)amino)-2,3-dihydrobenzo[d]isothiazole 1,1-dioxide], the pIC50 was 6.92 in experiment [1] and 8.15 in experiment [2].

Regarding `O=S1(=O)NCc2c1ccc(Nc1cc([C@H]3CC[C@@H](Oc4nscc4C4CC4)C3)[nH]n1)c2F` (relative stereo) [Example 53, cis-5-((5-(3-((4-cyclopropylisothiazol-3-yl)oxy)cyclopentyl)-1H-pyrazol-3-yl)amino)-4-fluoro-2,3-dihydrobenzo[d]isothiazole 1,1-dioxide], the pIC50 was 6.93 in experiment [1] and 8.39 in experiment [2].

In the case of `O=c1c(C2CC2)csn1[C@H]1CC[C@@H](c2cc(Nc3ccc4c(c3F)CNS4(=O)=O)n[nH]2)C1` (relative stereo) [Example 54, cis-4-cyclopropyl-2-(3-(3-((4-fluoro-1,1-dioxido-2,3-dihydrobenzo[d]isothiazol-5-yl)amino)-1H-pyrazol-5-yl)cyclopentyl)isothiazol-3 (2H)-one], the results for the negative logarithm of the IC50 (pIC50) in experiment [1] and in experiment [2] were 6.38 and 7.31, respectively.

Take `CC(C)c1csnc1O[C@@H]1CC[C@H](c2cc(Nc3ccc4c(c3F)CNS4(=O)=O)n[nH]2)C1` (relative stereo) [Example 55, cis-4-fluoro-5-((5-(3-((4-isopropylisothiazol-3-yl)oxy)cyclopentyl)-1H-pyrazol-3-yl)amino)-2,3-dihydrobenzo[d]isothiazole 1,1-dioxide]: the negative logarithm of the IC50 (pIC50) in experiment [1] is 6.31; in experiment [2] it was 7.85.

In the case of `CC(C)n1cnnc1O[C@@H]1CC[C@H](c2cc(Nc3ccc4c(c3F)CNS4(=O)=O)n[nH]2)C1` (relative stereo) [Example 57, cis-4-fluoro-5-((5-(3-((4-isopropyl-4H-1,2,4-triazol-3-yl)oxy)cyclopentyl)-1H-pyrazol-3-yl)amino)-2,3-dihydrobenzo[d]isothiazole 1,1-dioxide], the values for the negative logarithm of the IC50 (pIC50) in experiment [1] and in experiment [2] were 5.08 and 6.47, respectively.

Take `CC1(n2cnnc2O[C@@H]2CC[C@H](c3cc(Nc4ccc5c(c4F)CNS5(=O)=O)n[nH]3)C2)CC1` (relative stereo) [Example 58, cis-4-fluoro-5-((5-(3-((4-(1-methylcyclopropyl)-4H-1,2,4-triazol-3-yl)oxy)cyclopentyl)-1H-pyrazol-3-yl)amino)-2,3-dihydrobenzo[d]isothiazole 1,1-dioxide]: the pIC50 in experiment [1] is 5.14; in experiment [2], 6.57.

As for `CC(C)(C)n1cnnc1O[C@@H]1CC[C@H](c2cc(Nc3ccc4c(c3F)CNS4(=O)=O)n[nH]2)C1` (relative stereo) [Example 59, (cis)-5-((5-(3-((4-(tert-butyl)-4H-1,2,4-triazol-3-yl)oxy)cyclopentyl)-1H-pyrazol-3-yl)amino)-4-fluoro-2,3-dihydrobenzo[d]isothiazole 1,1-dioxide], the negative logarithm of the IC50 (pIC50) in experiment [1] is 6.25; in experiment [2] it was 8.12.

For the compound `CC(C)c1cn[nH]c1O[C@@H]1CC[C@H](c2cc(Nc3ccc4c(c3F)CNS4(=O)=O)n[nH]2)C1` (relative stereo) [Example 60, cis-4-fluoro-5-((5-(3-((4-isopropyl-1H-pyrazol-5-yl)oxy)cyclopentyl)-1H-pyrazol-3-yl)amino)-2,3-dihydrobenzo[d]isothiazole 1,1-dioxide], the figures for the pIC50 in experiment [1] and in experiment [2] were 6.14 and 7.92, respectively.

Regarding `CC(C)(C)c1cn[nH]c1O[C@@H]1CC[C@H](c2cc(Nc3ccc4c(c3F)CNS4(=O)=O)n[nH]2)C1` (relative stereo) [Example 61, cis-5-((5-(3-((4-(tert-butyl)-1H-pyrazol-5-yl)oxy)cyclopentyl)-1H-pyrazol-3-yl)amino)-4-fluoro-2,3-dihydrobenzo[d]isothiazole 1,1-dioxide], the results for the pIC50 in experiment [1] and in experiment [2] were 7.25 and 9.00, respectively.

On to `O=S1(=O)NCc2c1ccc(Nc1cc([C@H]3CC[C@@H](Oc4ccn[nH]4)C3)[nH]n1)c2F` (relative stereo) [Example 62, cis-5-((5-(3-((1H-pyrazol-5-yl)oxy)cyclopentyl)-1H-pyrazol-3-yl)amino)-4-fluoro-2,3-dihydrobenzo[d]isothiazole 1,1-dioxide], for which the values for the pIC50 in experiment [1] and in experiment [2] were 6.24 and 7.62, respectively.

Take `Cn1nccc1O[C@@H]1CC[C@H](c2cc(Nc3ccc4c(c3F)CNS4(=O)=O)n[nH]2)C1` (relative stereo) [Example 63, cis-4-fluoro-5-((5-(3-((1-methyl-1H-pyrazol-5-yl)oxy)cyclopentyl)-1H-pyrazol-3-yl)amino)-2,3-dihydrobenzo[d]isothiazole 1,1-dioxide]: the values for the pIC50 in experiment [1] and in experiment [2] were 5.51 and 7.05, respectively.

For `Cn1ccc(O[C@@H]2CC[C@H](c3cc(Nc4ccc5c(c4F)CNS5(=O)=O)n[nH]3)C2)n1` (relative stereo) [Example 64, cis-4-fluoro-5-((5-(3-((1-methyl-1H-pyrazol-3-yl)oxy)cyclopentyl)-1H-pyrazol-3-yl)amino)-2,3-dihydrobenzo[d]isothiazole 1,1-dioxide], the negative logarithm of the IC50 (pIC50) in experiment [1] is 5.72; in experiment [2], 6.53.

For the compound `Cc1cc(O[C@@H]2CC[C@H](c3cc(Nc4ccc5c(c4F)CNS5(=O)=O)n[nH]3)C2)[nH]n1` (relative stereo) [Example 65, cis-4-fluoro-5-((5-(3-((3-methyl-1H-pyrazol-5-yl)oxy)cyclopentyl)-1H-pyrazol-3-yl)amino)-2,3-dihydrobenzo[d]isothiazole 1,1-dioxide], the pIC50 is 5.87 in experiment [1] and 7.15 in experiment [2].

On to `Cc1cc(O[C@@H]2CC[C@H](c3cc(Nc4ccc5c(c4F)CNS5(=O)=O)n[nH]3)C2)n(-c2ccccc2)n1` (relative stereo) [Example 66, cis-4-fluoro-5-((5-(3-((3-methyl-1-phenyl-1H-pyrazol-5-yl)oxy)cyclopentyl)-1H-pyrazol-3-yl)amino)-2,3-dihydrobenzo[d]isothiazole 1,1-dioxide], for which the negative logarithm of the IC50 (pIC50) in experiment [1] was less than 5.00; in experiment [2], 5.60.

For the compound `O=S1(=O)NCc2c1ccc(Nc1cc([C@H]3CC[C@@H](Oc4n[nH]c5ccccc45)C3)[nH]n1)c2F` (relative stereo) [Example 67, cis-5-((5-(3-((1H-indazol-3-yl)oxy)cyclopentyl)-1H-pyrazol-3-yl)amino)-4-fluoro-2,3-dihydrobenzo[d]isothiazole 1,1-dioxide], the values for the pIC50 in experiment [1] and in experiment [2] were 5.67 and 7.27, respectively.
